Test results from article PMC3683042, “Solution Structure and Peptide Binding of the PTB Domain from the AIDA1 Postsynaptic Signaling Scaffolding Protein” (PLoS ONE, 2013).
Values belong to the compound of their own block, whether it stands above or below them. Residues, ends and D or L forms follow the SMILES beside them. *: point of attachment. FITC = O=C1OC2(c3ccc(O)cc3Oc3cc(O)ccc32)c2ccc(NC(=S)*)cc21

Columns and labels:
AIDA1 PTB domain = assay: Binding of APP peptides to the AIDA1 PTB domain; set-up: species or system human
Text: A gene fragment encoding the PTB domain (aa. 1043–1195) of human AIDA1b was PCR amplified with NdeI and EcoRI restriction sites and was subsequently inserted into pET28a (Novagen). The expressed protein contained an amino terminal 6xHis tag and intervening thrombin site. Other PTB domain fragments that lacked either the N-terminal 6xHis tag or the entire affinity tag along with 16 additional unstructured residues were also as […] as the fragment chosen for this study. To align the PTB domain described in this study with numerous AIDA1 isoforms, S1 in the PTB domain structure corresponds to S1045 in AIDA1b, the longest isoform. A one-liter fermentation in a minimal medium containing 1 g of ^15NH4Cl and 4 g of ^13C-glucose was sufficient to produce 5–10 mg of purified protein. Purification was achieved by Nickel-NTA affinity chromatography (Qiagen) and gel filtration chromatography on a S-100 HR 16/60 size exclusion column (GE Biosciences). Final buffer conditions were 20 mM Na-phosphate, pH 7.8, 0.15 M NaCl, 0.05% (w/v) NaN3. […] A 6xHis tagged PTB domain variant containing all five substitutions (PTB5M) was produced by DNA2.0 (Menlo Park, CA) by direct gene synthesis in the expression vector, pJExpress401 (T5 promoter plus kanamycin resistance). A 6xHis-tagged, APP-peptide ([…]) fused to the amino terminus of the AIDA1 PTB5M mutant with an intervening thrombin site was also synthesized by DNA2.0 in pJExpress401.
(§1) Fluorescein isothiocyanate (FITC) labeled peptides spanning portions of APP were produced and purified by CanPeptide (Montreal, QC) for fluorescence anisotropy based binding studies at 25°C using an Agilent Eclipse spectrophotometer equipped with a manual polarizer accessory. Buffer conditions were similar to those used for NMR spectroscopy. […] Anisotropy was calculated from the relationship (Iparallel–GIperp)/(Iparallel[…]) and normalized with the blank experiment. The equilibrium dissociation constant (KD) was calculated by direct fitting the titration curves with a standard two-state relationship using proFit 6.2 (Quantsoft).

[1] = target: T1, AIDA1 PTB domain, Y70A mutant (PTBY70A) (Homo sapiens, UniProt Q7Z6G8, Y1111A); assay: Fluorescence anisotropy binding of FITC-labeled APP peptides to PTBY70A; settings: FITC-labeled peptide, 25°C, buffer similar to NMR (20 mM Na-phosphate, pH 7.8, 0.15 M NaCl), two-state fit, n = 4 (APP-32), n = 2 (APP-17)
T1 construct: A gene fragment encoding the PTB domain (aa. 1043–1195) of human AIDA1b; 6xHis tag with thrombin site (N); made in house; host or cells: pET28a vector
T1 sequence (Q7Z6G8 1040-1192 Y1111A): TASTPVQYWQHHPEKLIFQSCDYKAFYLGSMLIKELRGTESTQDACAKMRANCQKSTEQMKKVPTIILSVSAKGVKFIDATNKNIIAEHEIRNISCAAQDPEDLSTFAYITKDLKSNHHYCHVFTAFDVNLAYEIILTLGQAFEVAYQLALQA
Text: (§2) A gene fragment encoding the PTB domain (aa. 1043–1195) of human AIDA1b was PCR amplified with NdeI and EcoRI restriction sites and was subsequently inserted into pET28a (Novagen). The expressed protein contained an amino terminal 6xHis tag and intervening thrombin site. Other PTB domain fragments that lacked either the N-terminal 6xHis tag or the entire affinity tag along with 16 additional unstructured residues were also as […] as the fragment chosen for this study. To align the PTB domain described in this study with numerous AIDA1 isoforms, S1 in the PTB domain structure corresponds to S1045 in AIDA1b, the longest isoform. A one-liter fermentation in a minimal medium containing 1 g of ^15NH4Cl and 4 g of ^13C-glucose was sufficient to produce 5–10 mg of purified protein. […]
as §1, with “accessory.” for “accessory. Buffer conditions were similar to those used for NMR spectroscopy.”

[2] = target: T2, AIDA1 PTB domain, PTB5M mutant (Homo sapiens, UniProt Q7Z6G8, F1057A/F1065A/Y1047A/Y1111A/Y1172A); assay: Fluorescence anisotropy binding of FITC-labeled APP peptides to PTB5M; settings: FITC-labeled peptide, 25°C, buffer similar to NMR (20 mM Na-phosphate, pH 7.8, 0.15 M NaCl), two-state fit, n = 4 (APP-32), n = 2 (APP-17), n = 1 (APP-17{pY})
T2 construct: A gene fragment encoding the PTB domain (aa. 1043–1195) of human AIDA1b; 6xHis; made in house; host or cells: gene synthesised by DNA2.0 in pJExpress401
T2 sequence (Q7Z6G8 1043-1195 Y1047A/F1057A/F1065A/Y1111A/Y1172A): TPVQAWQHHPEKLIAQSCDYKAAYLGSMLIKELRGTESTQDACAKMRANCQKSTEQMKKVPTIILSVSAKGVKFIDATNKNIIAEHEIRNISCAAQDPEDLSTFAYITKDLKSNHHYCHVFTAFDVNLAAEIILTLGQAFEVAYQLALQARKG
Text: as §2
as §1, with “accessory.” for “accessory. Buffer conditions were similar to those used for NMR spectroscopy.”

Fe65 PTB2 domain = settings: Discussion; read-out: dissociation constant, Fe65 (given jointly for X11/Fe65); cited from earlier work
Text: One threonine (T668) in APP located in this extended region is susceptible to phosphorylation and acts as a switch that repartitions the cis and trans states of the adjacent proline (P669) that, in turn, affects the ability of Fe65 to engage its ligand. […] This difference in affinity may be advantageous for AIDA1 to participate in signaling contexts beyond APP. From a peptide array study, we determined that the consensus sequence is less stringent NxxY versus NPxY for others in the same Dab-like class of PTB domains. Thus, at the neuronal synapse, AIDA1 could serve as a versatile collator and ...

X11 PTB domain = settings: Discussion; read-out: dissociation constant, X11 (given jointly for X11/Fe65); cited from earlier work
Text: This difference in affinity may be advantageous for AIDA1 to participate in signaling contexts beyond APP. From a peptide array study, we determined that the consensus sequence is less stringent NxxY versus NPxY for others in the same Dab-like class of PTB domains. Thus, at the neuronal synapse, AIDA1 could serve as a versatile collator and ...

- binding affinity to the AIDA1 PTB domain, long versus short APP peptide (AIDA1 PTB domain; fluorescence anisotropy titration, in words): no differences in binding affinity
Compound: CSCC[C@H](NC(=O)[C@H](CCC(N)=O)NC(=O)[C@H](CCC(=O)O)NC(=O)[C@H](Cc1ccccc1)NC(=O)[C@H](Cc1ccccc1)NC(=O)[C@H](CCCCN)NC(=O)[C@H](Cc1ccc(O)cc1)NC(=O)[C@@H](NC(=O)[C@@H]1CCCN1C(=O)[C@H](CC(N)=O)NC(=O)[C@H](CCC(=O)O)NC(=O)[C@H](Cc1ccc(O)cc1)NC(=O)CNC(=O)[C@H](CC(N)=O)NC(=O)[C@H](CCC(N)=O)NC(=O)CNC(=O)CNC(=S)Nc1ccc2c(c1)C(=O)OC21c2ccc(O)cc2Oc2cc(O)ccc21)[C@@H](C)O)C(=O)N[C@@H](CCC(N)=O)C(=O)N[C@@H](CC(N)=O)C(=O)O [APP-17] ({FITC}-GGQNGYENPTYKFFEQMQN-OH; C-terminus assumed)

- Kd [1]: 13.3 ± 1.5 µM
- Kd [2]: 14.8 ± 1 µM
Compound: CSCC[C@H](NC(=O)[C@H](CCC(N)=O)NC(=O)[C@H](CCC(=O)O)NC(=O)[C@H](Cc1ccccc1)NC(=O)[C@H](Cc1ccccc1)NC(=O)[C@H](CCCCN)NC(=O)[C@H](Cc1ccc(O)cc1)NC(=O)[C@@H](NC(=O)[C@@H]1CCCN1C(=O)[C@H](CC(N)=O)NC(=O)[C@H](CCC(=O)O)NC(=O)[C@H](Cc1ccc(O)cc1)NC(=O)CNC(=O)[C@H](CC(N)=O)NC(=O)[C@H](CCC(N)=O)NC(=O)[C@H](CCC(N)=O)NC(=O)[C@H](CCSC)NC(=O)[C@H](CCCCN)NC(=O)[C@H](CO)NC(=O)[C@H](CC(C)C)NC(=O)[C@H](Cc1c[nH]cn1)NC(=O)[C@H](CCCNC(=N)N)NC(=O)[C@H](CCC(=O)O)NC(=O)[C@H](CCC(=O)O)NC(=O)[C@@H]1CCCN1C(=O)[C@@H](NC(=O)[C@@H](NC(=O)[C@H](C)NC(=O)[C@H](C)NC(=O)[C@H](CC(=O)O)NC(=O)CNC(=O)CN)C(C)C)[C@@H](C)O)[C@@H](C)O)C(=O)N[C@@H](CCC(N)=O)C(=O)N[C@@H](CC(N)=O)C(=O)O [APP-32] (H-GGDAAVTPEERHLSKMQQNGYENPTYKFFEQMQN-OH)

- Kd (AIDA1 PTB domain; approximate value of text/abstract): ~10 µM
- affinity of the AIDA1 PTB domain (in words) (AIDA1 PTB domain; relative to similar APP binding proteins such as X11/Fe65): moderate
Compound: amyloid protein precursor (APP): amyloid protein precursor (APP)
- Kd (Fe65 PTB2 domain): < 1 µM
- Kd (X11 PTB domain): < 1 µM
